# Where two headings read alike, the source gives them in different places.
# How the values were obtained:
# [1] = degradation by desiccated (dry) carbon dioxide absorbents at 40° C.; type: physicochemical; details: for % Degr Per min: 40° C.
# Procedure: Drying was accomplished by placing wet absorbent in a large flask receiving 1-1.5 L/min of oxygen (dry; no water vapor) for 4 days. The flask rested in an incubator at 50° C. The absorbent contained in the flask was weighed repeatedly (to essentially constant weight loss).
# As above, all studies were conducted at 40° C. Desiccated (dry) absorbent (grams indicated) was placed in a 600 mL flask, and 100 or 200 mL of anesthetic at the indicated concentration was inserted. […] Values for % degraded per minute are given as the average and standard deviation (SD).
# [2] = currently used anesthetics; cited from earlier work
# [3] = degradation by wet (normal) carbon dioxide absorbents at 40° C., gas chromatography; type: physicochemical; details: for % Degraded per Minute: 100 mL anesthetic
# Procedure: Nine milligrams of the compound of formula (1) were placed in each of three 600 ml flasks containing 100 g of soda lime and maintained at 40° C. The 40° C. temperature is chosen to mimic that generated by the exothermic reaction of carbon dioxide with absorbent in a system wherein all gases are rebreathed. Soda lime contains sodium hydroxide as well as approximately 80% calcium hydroxide. A control flask contained the compound of formula (1) but no soda lime. Samples were taken at various timepoints and analyzed by gas chromatography using a flame ionization detector. […] It will be noted that the Y-axis is on a log scale so that the depletion is quite dramatic.
# The procedure was identical to that of Example 1 except that an absorbent containing only calcium hydroxide as the base was used. This absorbent is marketed under the trademark Amsorb®.
# The dramatic decrease in degradation with substitution of Amsorb® for soda lime applies to other absorbents that are composed of calcium hydroxide but contain minimal or no monovalent bases, LoFloSorb® and Drägersorb® Free. The general procedure of Example 1 was repeated using these two commercially available absorbents. […] All studies were conducted at 40° C. In all cases, the absorbents were “wet” (contained approximately 15% water by weight). The data in the table were obtained using the protocol set forth above wherein 100 g of absorbent was placed in a 600 mL flask, and 100 mL of anesthetic at the indicated concentration was inserted. Each study was done in triplicate. […] Values for % degraded per minute are given as the average and standard deviation (SD).
# mice and rats = assay: recovery, CNS irritation and survival after anesthesia in mice and rats; type: in vivo
# mice = assay: loss of righting reflex in mice; type: in vivo; details: four mice, closed system with Amsorb, rectal temperature 30° C. (hypothermic)
# Description: (§1) Clearly another significant property of an anesthetic is its ability to effect anesthesia in the first place. […] The minimum alveolar concentration of anesthetic at which 50% of subjects move in response to a noxious stimulus is designated “MAC.” In the case of 30-60 year old adult humans, the MAC values are 0.06 atm (i.e., 6%) for desflurane, 0.0115 atm (1.15%) for isoflurane and 0.0185 atm (1.85%) for sevoflurane). An alternative measurement similar to MAC that is based on the righting reflex in mice gave a value for the compound of formula (1) of 0.05 atm (5%). The value obtained in this alternative assay approximates but is usually a bit less than MAC.
# In a closed system employing Amsorb® as the absorbent, four mice were anesthetized using the compound of formula (1). The righting reflex was lost at 3.22±0.54% of formula (1). The rectal temperature of the mice at the end of this experiment was 30° C. which is hypothermic for mice. Hypothermia decreases anesthetic requirement (Eger, E. I. II and Johnson, B. H.; Anesth Analg (1987) 66:974-976), and thus this experiment probably underestimated the concentration producing the loss of righting reflex.
# rats = assay: MAC in rats; type: in vivo; details: five rats, 37° C. (normothermic)
# Description: as §1
# In an additional experiment, conducted at 37° C. which is normothermic, five rats were anesthetized using the compound of formula (1) and the MAC value found was 8.34±0.84%.
# [4] = blood/gas partition coefficient; type: physicochemical
# Description: One highly desirable property of an inhaled anesthetic is that it permits rapid recovery once the administration of the anesthetic is halted. Typically, during surgical procedures, the subject is continuously administered the anesthetic, and it is helpful if the subject can recover as quickly as possible as soon as administration is stopped. The length of time required for such recovery is a function of the solubility of the anesthetic in the blood, which mimics solubility in the brain. Thus, anesthetics with very low blood/gas partition coefficients are highly desirable. The blood/gas partition coefficient for desflurane is 0.45; for sevoflurane is 0.65 and for isoflurane is even higher. The blood/gas partition coefficient for the compound of formula (1) is only 0.21, making it highly advantageous as permitting more rapid recovery than any of the currently used anesthetics.
# murine models = details: cited from earlier work
# [5] = Strum et al. 1987; cited from earlier work
# [6] = dry LoFloSorb 50 g, 200 mL injected
# [7] = dry Amsorb 100 g, 100 mL injected
# [8] = dry Drägersorb Free 25 g, 100 mL injected
# [9] = dry LoFloSorb 25 g, 100 mL injected
smiles,measurement,setting,value
"FC(F)OC(F)C(F)(F)F (centres unmarked) [Desflurane, desflurane, reference compound]",% Degr Per min,"[1]; dry Amsorb 50 g, 100 mL injected",−0.1%
same,% Degr Per min,[1]; [6],0.5%
same,blood/gas partition coefficient,[2],0.45
"FC(F)OC(C(F)(F)F)C(F)(F)F [Formula (1), CHF2—O—CH(CF3)2]",degradation in flasks containing soda lime (FIG. 2),"[3]; 9 mg, 100 g soda lime, 600 ml flask, after 30 min",essentially complete degradation
same,percentage of compound in the flask (FIG. 3),"[3]; 100 g Amsorb (calcium hydroxide only), 30 min interval",remained constant
same,% Degraded per Minute,[3]; wet Amsorb 100 g,−0.05%
same,% Degraded per Minute,[3]; wet Drägersorb Free 100 g,0.102%
same,% Degraded per Minute,[3]; wet LoFloSorb 100 g,0.2%
same,% Degraded per Minute,[3]; wet Soda Lime 100 g,25.0%
same,survival,"mice and rats; 24 hours after anesthesia, mice and rats",All survived for 24 hours in apparent good health
same,time to awake after administration of the anesthetic was stopped,mice and rats; mice and rats,2 to 3 min
same,irritation of the central nervous system,mice and rats; mice and rats anesthetized,In neither of these cases was there irritation of the central nervous system
same,concentration at which the righting reflex was lost,mice,3.22±0.54%
same,MAC value,rats,8.34±0.84%
same,blood/gas partition coefficient,[4],0.21
same,% Degr Per min,"[1]; dry Amsorb 20 g, 100 mL injected",0.7%
same,% Degr Per min,[1]; [7],2.7%
same,rate of degradation on repeated addition of anesthetic (FIG. 4),"[1]; dry Amsorb, three flasks, repeated additions",progressively decreased
same,% Degr Per min,[1]; [8],0.28%
same,% Degr Per min,[1]; [9],55.0%
same,% Degr Per min,[1]; [6],40.7%
same,anesthetic quality,"murine models; Speers et al., J. Med. Chem. 1971",good anesthetic
same,side effects,"murine models; murine models, Speers et al. 1971",undesirable side effects
"FCOC(C(F)(F)F)C(F)(F)F [Sevoflurane, sevoflurane, reference compound]",% Degraded per Minute,[3]; wet Drägersorb Free 100 g,−0.058%
same,% Degr Per min,[1]; [7],5.01%
same,% Degr Per min,[1]; [8],0.52%
same,% Degr Per min,[1]; [9],38.5%
same,degradation in soda lime,[5],13 % per hour
same,blood/gas partition coefficient,[2],0.65

# Reference: US7605184B2, “Method of anesthesia” (priority 2008, dated 2009)
